Key:
[1] = tested on: U-138MG; test: OncoPanel cell proliferation assay, U-138MG; assay type: cell-based, human; conditions: U-138MG
Experimental: (§1) Cells were grown in RPMI 1640, 10% FBS, 2 mM L-alanyl-L-glutamine, 1 mM Na pyruvate, or a special medium. Cells were seeded into 384-well plates and incubated in a humidified atmosphere of 5% CO2 at 37° C. Compounds were added the day following cell seeding. At the same time, a time zero untreated cell plate was generated. After a 3-day incubation period, cells were fixed and stained to allow fluorescence imaging of nuclei. Compounds (1 mM stock solutions) were serially diluted in half-log steps from the highest test concentration ([…]), and assayed over 10 concentrations with a maximum assay concentration of 0.1% DMSO. Automated fluorescence microscopy was carried out using a Molecular Devices ImageXpress Micro XL high-content imager, and images were collected with a 4× objective. 16-bit TIFF images were acquired and analyzed with MetaXpress 5.1.0.41 software.
(§2) Cell proliferation was measured by the fluorescence intensity of an incorporated nuclear dye. The output is referred to as the relative cell count, where the measured nuclear intensity is transformed to percent of control (POC) using the following formula: […]
(§3) Cellular response parameters were calculated using nonlinear regression to a sigmoidal single-site dose response model:
(§4) EC50 is the test compound concentration at the curve inflection point or half the effective response (parameter C of the fitted curve solution). GI50 is the concentration needed to reduce the observed growth by half (midway between the curve maximum and the time zero value). “Cell Count Activity Area” is an estimate of the integrated area above the curve (Barretina, et al. The Cancer Cell Line Encyclopedia enables predictive modelling of anticancer drug sensitivity. Nature 483: 603-607). […] In rare instances, values <0 or >10 may be observed. […] Curve-fitting, calculations, and report generation was performed using a custom data reduction engine and MathIQ based software (AIM).

[2] = tested on: CEM-C1; test: OncoPanel cell proliferation assay, CEM-C1; assay type: cell-based, human
Experimental: as §1, §2, §3, §4

[3] = tested on: DMS114; test: OncoPanel cell proliferation assay, DMS114; assay type: cell-based, human
Experimental: as §1, with “Cells” for “Cells were grown in RPMI 1640, 10% FBS, 2 mM L-alanyl-L-glutamine, 1 mM Na pyruvate, or a special medium. Cells”
as §2, §3
GI50 is the concentration needed to reduce the observed growth by half (midway between the curve maximum and the time zero value). […] In rare instances, values <0 or >10 may be observed. […] Curve-fitting, calculations, and report generation was performed using a custom data reduction engine and MathIQ based software (AIM).

[4] = tested on: SK-MEL-28; test: OncoPanel cell proliferation assay, SK-MEL-28; assay type: cell-based, human
Experimental: as §1, §2, §3, §4

[5] = tested on: Hs 852.T; test: OncoPanel cell proliferation assay, Hs 852.T; assay type: cell-based, human
Experimental: as §1, §2, §3, §4

[6] = tested on: A101D; test: OncoPanel cell proliferation assay, A101D; assay type: cell-based, human
Experimental: as §1, §2, §3, §4

[7] = tested on: AsPC-1; test: OncoPanel cell proliferation assay, AsPC-1
Experimental: (§5) Cells were seeded into 384-well plates and incubated in a humidified atmosphere of 5% CO2 at 37° C. Compounds were added the day following cell seeding. At the same time, a time zero untreated cell plate was generated. After a 3-day incubation period, cells were fixed and stained to allow fluorescence imaging of nuclei. Compounds (1 mM stock solutions) were serially diluted in half-log steps from the highest test concentration (1 micromol), and assayed over 10 concentrations with a maximum assay concentration of 0.1% DMSO. Automated fluorescence microscopy was carried out using a Molecular Devices ImageXpress Micro XL high-content imager, and images were collected with a 4× objective. 16-bit TIFF images were acquired and analyzed with MetaXpress 5.1.0.41 software.

[8] = tested on: A431; test: OncoPanel cell proliferation assay, A431; assay type: cell-based, human
Experimental: as §1, §2, §3, §4

[9] = tested on: CaOV3; test: OncoPanel cell proliferation assay, CaOV3; assay type: cell-based, human
Experimental: as §1, §2, §3, §4

[10] = tested on: PC-3; test: OncoPanel cell proliferation assay, PC-3
Experimental: as §5

[11] = tested on: AGS; test: OncoPanel cell proliferation assay, AGS; assay type: cell-based, human
Experimental: as §1, §2, §3, §4

[12] = tested on: G-402; test: OncoPanel cell proliferation assay, G-402; assay type: cell-based, human
Experimental: as §1, §2, §3, §4

[13] = Homo sapiens, read-out: Cell Count EC50
[14] = Homo sapiens, read-out: Cell Count GI50
[15] = Homo sapiens, read-out: Cell Count IC50

Structure (SMILES): CO[C@H]1C[C@@H]2CC[C@@H](C)[C@@](O)(O2)C(=O)C(=O)N2CCCC[C@H]2C(=O)O[C@H]([C@H](C)C[C@@H]2CC[C@@H](O)[C@H](OC)C2)CC(=O)[C@H](C)/C=C(\C)[C@@H](O)[C@@H](OC)C(=O)[C@H](C)C[C@H](C)/C=C/C=C/C=C/1C [Rapamycin, reference compound]
- EC50 ([1]; Homo sapiens, U138-MG, read-out: Cell Count EC50): 0.0363 nM
- GI50 ([1]; Homo sapiens, U138-MG, read-out: Cell Count GI50): 0.436 nM
- IC50 ([1]; Homo sapiens, U138-MG, read-out: Cell Count IC50): > 1000 nM
- Cell Count Activity Area [1]: 3.14
- Cell Count Activity Area [2]: 3.61
- EC50 [2, 13]: 0.265 nM
- GI50 [2, 14]: 4.36 nM
- IC50 [2, 15]: > 1000 nM
- Cell Count Activity Area [3]: 4.14
- EC50 ([3]; Homo sapiens, DMS-114, read-out: Cell Count EC50): 0.0747 nM
- GI50 ([3]; Homo sapiens, DMS-114, read-out: Cell Count GI50): 0.0478 nM
- IC50 ([3]; Homo sapiens, DMS-114, read-out: Cell Count IC50): > 1000 nM
- Cell Count Activity Area [4]: 2.50
- EC50 [4, 13]: 0.654 nM
- GI50 [4, 14]: 98.7 nM
- IC50 [4, 15]: > 1000 nM
- Cell Count Activity Area [5]: 1.43
- EC50 [5, 13]: > 1000 nM
- GI50 [5, 14]: > 1000 nM
- IC50 [5, 15]: > 1000 nM
- Cell Count Activity Area [6]: 2.92
- EC50 [6, 13]: 0.184 nM
- GI50 [6, 14]: 0.721 nM
- IC50 [6, 15]: > 1000 nM
- Cell Count Activity Area ([7]; AsPC-1): 1.48
- EC50 ([7]; Homo sapiens, ASPC1, read-out: Cell Count EC50): > 1000 nM
- GI50 ([7]; Homo sapiens, ASPC1, read-out: Cell Count GI50): > 1000 nM
- IC50 ([7]; Homo sapiens, ASPC1, read-out: Cell Count IC50): > 1000 nM
- Cell Count Activity Area [8]: 0.28
- EC50 ([8]; Homo sapiens, A-431, read-out: Cell Count EC50): > 1000 nM
- GI50 ([8]; Homo sapiens, A-431, read-out: Cell Count GI50): > 1000 nM
- IC50 ([8]; Homo sapiens, A-431, read-out: Cell Count IC50): > 1000 nM
- Cell Count Activity Area [9]: 2.40
- EC50 ([9]; Homo sapiens, Caov-3, read-out: Cell Count EC50): > 1000 nM
- GI50 ([9]; Homo sapiens, Caov-3, read-out: Cell Count GI50): > 1000 nM
- IC50 ([9]; Homo sapiens, Caov-3, read-out: Cell Count IC50): > 1000 nM
- EC50 ([10]; Homo sapiens, PC-3, read-out: Cell Count EC50): 0.23 nM
- GI50 ([10]; Homo sapiens, PC-3, read-out: Cell Count GI50): 2.63 nM
- IC50 ([10]; Homo sapiens, PC-3, read-out: Cell Count IC50): > 1000 nM
- Cell Count Activity Area ([10]; PC-3): 3.57
- Cell Count Activity Area [11]: 5.67
- EC50 [11, 13]: 0.0387 nM
- GI50 [11, 14]: 0.165 nM
- IC50 [11, 15]: 0.314 nM
- Cell Count Activity Area [12]: 4.68
- EC50 [12, 13]: 0.111 nM
- GI50 [12, 14]: 0.182 nM
- IC50 [12, 15]: 0.334 nM

— patent publication US20200131196A1 (Mount Tam Therapeutics, Inc., priority 2017, published 2020)
